PMC10388311, “Innovative Strategy toward Mutant CFTR Rescue in Cystic Fibrosis: Design and Synthesis of Thiadiazole Inhibitors of the E3 Ligase RNF5” (Journal of Medicinal Chemistry, 2023)
“Also recorded” adds a separate entry of the source.

Tests used:
[1] = system: ATG4B-mediated basal autophagy in F508del-CFTR-expressing CFBE41o– cells; assay: Labeling of autophagic vacuoles with monodansylcadaverine (MDC); format: cell-based, human; settings: test compounds 5 μM 24 h; torin-1 20 nM and SAR-405 2 μM in the last 3 h
Description: To further support our hypothesis that CFTR rescue following treatment with test compounds was indeed due to RNF5 inhibition, we considered additional biological processes known to be regulated by RNF5 ligase activity. To this aim, we focused our attention on ATG4B, a known regulator of basal autophagy, whose degradation is mediated by RNF5 activity.[54]In vivo ubiquitination experiments previously confirmed that inh-2 inhibits ATG4B degradation, thus increasing the basal level of autophagy.[40] […] We thus evaluated the effect of inh-2 analogues on induction of the autophagy pathway. To this aim, we monitored the formation of autophagic vacuoles in F508del-CFTR-expressing CFBE41o^– cells (Figure 8) by using the autolysosome marker monodansylcadaverine (MDC). MDC accumulates inside autophagosomes. After fusion of autophagosomes with lysosomes, MDC fluorescence increases due to the acidic environment.[55] Therefore, F508del-CFTR-expressing CFBE41o^– cells were treated for 24 h with test compounds (5 μM), VX-809 (1 μM), or DMSO alone (vehicle). In the last 3 h of incubation, we added torin-1 (20 nM), a known autophagy inducer, and SAR-405 (2 μM), a potent inhibitor of the autophagic pathway. The cells were then loaded with MDC and evaluated by high-content confocal imaging to detect signal spots (corresponding to autophagic vacuoles) in each cell.
CFBE41o^– cells stably expressing F508del-CFTR and the HS-YFP were plated (50,000 cells/well) on good-quality clear-bottom 96-well black microplates suitable for high-content imaging. After 24 h, cells were treated with test compounds or DMSO (as the negative control). […] After 24 h, cells were incubated with 50 μM MDC (Sigma-Aldrich) in PBS at 37 °C for 10 min.[62] After incubation, cells were washed three times with PBS and immediately analyzed. High-content imaging and data analysis were performed using the Opera Phenix (PerkinElmer) high-content screening system. Wells were imaged in confocal mode using a 40× water-immersion objective. The MDC signal was laser-excited at 405 nm, and the emission wavelengths were collected between 435 and 550 nm. Data analysis of MDC spot number was performed using the Harmony software (ver 4.5) of the Opera Phenix high-content system. Data are expressed as means ± SEM, n = 3 independent experiments. Statistical significance was tested by parametric ANOVA followed by the Dunnet multiple comparisons test (all groups against the control group).

CFBE41o– cells = assay: Apoptosis assay (Hoechst 33342 / propidium iodide, high-content imaging); format: cell-based, human
Method: We performed a preliminary evaluation of the effect of chronic treatment with selected analogues on the proliferation and apoptosis of CFBE41o^– cells (Figure 7). Indeed, RNF5 can modulate cell motility and proliferation by regulating paxillin ubiquitylation and thus its degradation.[53] For the proliferation assay, CFBE41o^– cells stably co-expressing F508del-CFTR and the HS-YFP were treated with test compounds (5 μM), VX-809 (1 μM), or vehicle alone (DMSO) for 48 h. Cell proliferation was then monitored by measuring the area covered by the cells based on the YFP signal. For the apoptosis assay, 24 h after plating, CFBE41o^– cells stably expressing F508del-CFTR were treated with test compounds (5, 20, and 100 μM), VX-809 (1 μM), MG132 (50 μM), or vehicle alone (DMSO) for 24 h. Cell nuclei were then counterstained with Hoechst 33342 and propidium iodide to visualize the total and apoptotic cell count, respectively, and imaged by using an Opera Phenix high-content screening system.
CFBE41o^– cells stably expressing F508del-CFTR and the HS-YFP were plated at a low density (5000 cell/well) on 96-well plates suitable for high-content imaging. […] Cell proliferation was monitored (by exploiting the YFP signal to determine the area covered by cells) for 48 h using the Opera Phenix (PerkinElmer) high-content screening system. […] Data are expressed as means ± SEM, n = 6. […]

Row | Compound | number of autophagic vacuoles (MDC signal spots) [1] | effect on cell proliferation and apoptosis (tolerability) (CFBE41o– cells)
1 | Cc1ns/c(=N\C(=N\c2ccccc2)c2ccccc2)n1Cc1ccccc1 [inh-2, reference compound] | significantly increased | –
2 | COc1cccc(Cn2c(C)ns/c2=N\C(=N\c2ccccc2)c2ccccc2)c1 [Compound 16, (E)-N-((Z)-4-(3-Methoxybenzyl)-3-methyl-1,2,4-thiadiazol-5(4H)-ylidene)-N′-phenylbenzimidamide] | significantly increased; also recorded: strong activation of basal autophagy | good tolerability and no toxic side effects
